The results in this text go back to publication PMC10071493 (ACS chemical neuroscience, 2021).

The target of the assay is MC-I from the bovine heart (mitochondrial complex I) (Bos taurus, UniProt P25708). In words: microscale thermophoresis, label-free. In kind it is binding. Background: MST reads how a fluorescent partner responds to local heating, with and without ligand.

pKd: −log10 of the molar value.

Sequence of MC-I from the bovine heart (mitochondrial complex I) (P25708 21-464, one chain of several): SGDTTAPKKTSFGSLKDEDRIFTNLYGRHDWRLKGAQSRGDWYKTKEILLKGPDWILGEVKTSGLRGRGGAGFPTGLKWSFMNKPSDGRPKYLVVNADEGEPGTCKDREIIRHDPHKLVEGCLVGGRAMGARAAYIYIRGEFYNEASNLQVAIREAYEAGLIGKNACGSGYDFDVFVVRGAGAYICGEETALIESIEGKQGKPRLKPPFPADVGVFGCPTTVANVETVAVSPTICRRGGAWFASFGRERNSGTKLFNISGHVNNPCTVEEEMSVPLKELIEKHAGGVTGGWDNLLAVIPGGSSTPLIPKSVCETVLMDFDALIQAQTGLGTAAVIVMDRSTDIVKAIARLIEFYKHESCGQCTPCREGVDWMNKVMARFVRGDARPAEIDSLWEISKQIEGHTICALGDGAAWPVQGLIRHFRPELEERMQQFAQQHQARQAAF

Usually pKd stands for −log10 of the Kd, conventionally taken in molar units. In turn, `COc1ccc2[nH]cc(CCNC(=O)CC(=O)CCc3ccc(F)cc3)c2c1` [compound 2, 5-(4-Fluorophenyl)-N-(2-(5-methoxy-1H-indol-3-yl)ethyl)-3-oxo-pentanamide] showed a pKd of around 6.30.
